Measured values published in PubChem BioAssay AID1963827 (Molecular Pharmacology Branch, DTP, NCI, 2024).

System: 994946-033-R-J1-PDC complex spheroid viability
Assay: Anticancer human tumor 994946-033-R-J1-PDC patient-derived melanoma cell line growth inhibition [POLQ]
Details: for IC50: curve of first compound; for viability, T/C: stronger effect = lower value
Description: Multicellular complex tumor spheroid response to Polymerase (POL) inhibitors (novobiocin, ART-558, RP6685) in combination with a variety of drugs and investigational agents in selected tumor cell lines
The POL inhibitors (novobiocin, ART-558, and RP6685) were evaluated both individually and in combination with standard of care and investigational anticancer small molecules within a complex spheroid model of solid tumors. . Complex spheroids include a stromal component modeled by human endothelial cells (HUVEC) and fibroblasts modeled by human mesenchymal stem cells (MSCs). The concentration ranges selected for each drug and investigational agent were based upon clinically achievable concentrations if the clinical Cmax of the agent was known.
Compounds. The drugs and investigational agents: novobiocin (NSC847541), ART-558 (NSC835418), RP-6685 (NSC848927), peposertib (NSC802822), ceralasertib (NSC780249), elimusertib (NSC800525), camonsertib (NSC841442), AZD-1390 (NSC803789), olaparib (NSC753686), talazoparib (NSC767125), rucaparib (NSC756644), sotorasib (NSC818433), MRTX-1133 (NSC836407), SN-38 (NSC673596), topotecan (NSC609699), epotoside (NSC141540), doxorubicin (NSC123127), gemcitabine (NSC613327), 5-fluorouracil (NSC19893), paclitaxel (NSC125973), vemurafenib (NSC761431), MSA-2 (NSC828583), SN-011 (NSC837082), adavosertib (NSC754352), prexasertib (NSC758257), carboplatin (NSC241240) and oxaliplatin (NSC266046), were obtained from the National Cancer Institute (NCI) Developmental Therapeutics Program Chemical Repository (21). The FDA-approved anticancer drug set is available from the Developmental Therapeutics Program at https://dtp.cancer.gov/organization/dscb/obtaining/. […] The stock solutions were prepared in dimethyl sulfoxide (DMSO, Sigma-Aldrich, St. Louis, MO, cat. D2650), except for the platinum compounds which were prepared in saline (Quality Biological, Gaithersburg, MD, cat. 114-055-101), at 800-fold the tested concentration and stored at -70 degrees C prior to their use. All drugs and investigational agents were tested over a range starting from a high concentration at or near the clinical Cmax and decreasing in half-log increments. If the clinical Cmax for an agent had not been determined, the highest concentration tested was 10 microM, except for SN-38, which was tested at a high concentration of 1 microM.
Cell Culture. All cells were maintained in an incubator at 37 degrees C and 5% CO2 with 95% humidity. The PDC lines were cultured according to standard operating procedures established by the NCI PDMR (https://pdmr.cancer.gov). Table 3 of the manuscript, lists the cell lines along with the number of the three cell types plated to form the mct-spheroids and media for tumor cell growth. After thawing, all PDC lines, except 997537-175-T-J1-PDC and 415267-285-R-J2-PDC, were cultured in Matrigel-coated flasks prepared with a working solution of 1X Ham's F-12 nutrient mix, without supplementation (Thermo Fisher Scientific, cat. 11765054), 100 U/mL penicillin-streptomycin (Thermo Fisher Scientific, cat. 15140122), and 2.5% Matrigel (Corning Inc., Corning, NY, cat. 354248) for the first three passages. The two PDC lines 997537-175-T-J1-PDC and 415267-285-R-J2-PDC were cultured on uncoated flasks. The 857933-349-R-J2-PDC line was cultured in 6C/Colon 1B media containing advanced DMEM/F-12 (Thermo Fisher Scientific, cat. 12634028), 10 mM HEPES (Thermo Fisher Scientific, cat. 15630080), 1X GlutaMAX supplement (Thermo Fisher Scientific, cat. 35050061), 0.1 mg/mL primocin (InvivoGen, San Diego, CA, cat. ant-pm-2), 10% defined fetal bovine serum, heat inactivated (HyClone Laboratories Inc., Logan, UT, cat. SH30070.03HI), 50% L-WRN conditioned media (ATCC, cat. CRL-3276), 1.25 mM N-Acetyl-L-cysteine (Sigma-Aldrich, cat. A9165), 10 mM nicotinamide (Sigma-Aldrich, cat. N0636), 1X B-27 supplement (Thermo Fisher Scientific, cat. 17504044), 1X N-2 supplement (Thermo Fisher Scientific, cat. […]

[1] = second compound 0.0316 µM, first compound 0.0316 µM
[2] = second compound 0.0316 µM, first compound 0.1 µM
[3] = second compound 0.0316 µM, first compound 0.316 µM
[4] = second compound 0.0316 µM, first compound 1 µM
[5] = second compound 0.0316 µM, first compound 3.16 µM
[6] = second compound 0.0316 µM, first compound 10 µM
[7] = second compound 0.1 µM, first compound 0.0316 µM
[8] = second compound 0.1 µM, first compound 0.1 µM
[9] = second compound 0.1 µM, first compound 0.316 µM
[10] = second compound 0.1 µM, first compound 1 µM
[11] = second compound 0.1 µM, first compound 3.16 µM
[12] = second compound 0.1 µM, first compound 10 µM
[13] = second compound 0.316 µM, first compound 0.0316 µM
[14] = second compound 0.316 µM, first compound 0.1 µM
[15] = second compound 0.316 µM, first compound 0.316 µM
[16] = second compound 0.316 µM, first compound 1 µM
[17] = second compound 0.316 µM, first compound 3.16 µM
[18] = second compound 0.316 µM, first compound 10 µM
[19] = second compound 1 µM, first compound 0.0316 µM
[20] = second compound 1 µM, first compound 0.1 µM
[21] = second compound 1 µM, first compound 0.316 µM
[22] = second compound 1 µM, first compound 1 µM
[23] = second compound 1 µM, first compound 3.16 µM
[24] = second compound 1 µM, first compound 10 µM
[25] = second compound 3.16 µM, first compound 0.0316 µM
[26] = second compound 3.16 µM, first compound 0.1 µM
[27] = second compound 3.16 µM, first compound 0.316 µM
[28] = second compound 3.16 µM, first compound 1 µM
[29] = second compound 3.16 µM, first compound 3.16 µM
[30] = second compound 3.16 µM, first compound 10 µM
[31] = second compound 10 µM, first compound 0.0316 µM
[32] = second compound 10 µM, first compound 0.1 µM
[33] = second compound 10 µM, first compound 0.316 µM
[34] = second compound 10 µM, first compound 1 µM
[35] = second compound 10 µM, first compound 3.16 µM
[36] = second compound 10 µM, first compound 10 µM
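Note: spheroids exposed to drugs for 7 days.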
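Throughout, for viability, T/C: 100% = DMSO vehicle treated spheroids.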

CCc1cc2c(N3CCc4c(cc(Cn5ccnc5)cc4-c4cn(C)nc4C(F)(F)F)C3=O)ccnc2c(OC)n1 + COC1C(OC(N)=O)C(O)C(Oc2ccc3c(O)c(NC(=O)c4ccc(O)c(CC=C(C)C)c4)c(=O)oc3c2C)OC1(C)C
IC50 (second compound 0.0316 µM): > 10 µM
IC50 (second compound 0.1 µM): > 10 µM
IC50 (second compound 0.316 µM): > 10 µM
IC50 (second compound 1 µM): > 10 µM
IC50 (second compound 3.16 µM): > 10 µM
IC50 (second compound 10 µM): > 10 µM
viability, T/C [1]: 98.9%
viability, T/C [2]: 72.2%
viability, T/C [3]: 61.1%
viability, T/C [4]: 73.3%
viability, T/C [5]: 63.3%
viability, T/C [6]: 70%
viability, T/C [7]: 92.7%
viability, T/C [8]: 77.8%
viability, T/C [9]: 96.2%
viability, T/C [10]: 78.8%
viability, T/C [11]: 61.2%
viability, T/C [12]: 81.2%
viability, T/C [13]: 100%
viability, T/C [14]: 98.3%
viability, T/C [15]: 70.6%
viability, T/C [16]: 66.1%
viability, T/C [17]: 86.4%
viability, T/C [18]: 63.7%
viability, T/C [19]: 91.6%
viability, T/C [20]: 75.7%
viability, T/C [21]: 94.1%
viability, T/C [22]: 85.3%
viability, T/C [23]: 68.1%
viability, T/C [24]: 69%
viability, T/C [25]: 91.9%
viability, T/C [26]: 77.3%
viability, T/C [27]: 81.7%
viability, T/C [28]: 73.8%
viability, T/C [29]: 74.3%
viability, T/C [30]: 54%
viability, T/C [31]: 91.7%
viability, T/C [32]: 77.6%
viability, T/C [33]: 67.1%
viability, T/C [34]: 81.2%
viability, T/C [35]: 64.3%
viability, T/C [36]: 58.9%

C=CC(=O)N1CCN(c2nc(=O)n(-c3c(C)ccnc3C(C)C)c3nc(-c4c(O)cccc4F)c(F)cc23)C(C)C1 (centres undefined) + Cc1cccc(N(C)C(=O)C2C(O)CCN2c2nc(C)cc(C(F)(F)F)c2C#N)c1
IC50 (second compound 0.0316 µM): > 10 µM
IC50 (second compound 0.1 µM): > 10 µM
IC50 (second compound 0.316 µM): > 10 µM
IC50 (second compound 1 µM): > 10 µM
IC50 (second compound 3.16 µM): > 10 µM
IC50 (second compound 10 µM): > 10 µM
viability, T/C [1]: 75.8%
viability, T/C [2]: 101%
viability, T/C [3]: 112%
viability, T/C [4]: 126%
viability, T/C [5]: 110%
viability, T/C [6]: 132%
viability, T/C [7]: 94.5%
viability, T/C [8]: 118%
viability, T/C [9]: 129%
viability, T/C [10]: 123%
viability, T/C [11]: 119%
viability, T/C [12]: 113%
viability, T/C [13]: 115%
viability, T/C [14]: 114%
viability, T/C [15]: 94.2%
viability, T/C [16]: 140%
viability, T/C [17]: 123%
viability, T/C [18]: 93.8%
viability, T/C [19]: 113%
viability, T/C [20]: 109%
viability, T/C [21]: 91.1%
viability, T/C [22]: 107%
viability, T/C [23]: 90.2%
viability, T/C [24]: 93.9%
viability, T/C [25]: 130%
viability, T/C [26]: 104%
viability, T/C [27]: 132%
viability, T/C [28]: 119%
viability, T/C [29]: 105%
viability, T/C [30]: 129%
viability, T/C [31]: 84.7%
viability, T/C [32]: 101%
viability, T/C [33]: 105%
viability, T/C [34]: 115%
viability, T/C [35]: 96.3%
viability, T/C [36]: 106%
